The values that follow come from US6528677B1, “Selective retinoid agonists” (Hoffmann-La Roche Inc., priority 1999, dated 2003).

The test system of data set [1] is elastase-induced emphysema in rats. As to the kind of experiment: Repair of alveoli in elastase-induced emphysema (rat model). In kind it is in vivo, male Sprague Dawley rats. Particulars: starting 21 days post elastase injury, morphometric analysis of lung sections. The protocol:
Effects of RAR Selective Retinoids on Repair of Alveoli in Elastase-induced Emphysema
RAR selective agonists were evaluated for its effects on alveolar repair in the rat model of elastase-induced emphysema in rats (D. Massaro et al. Nature Medicine (1997, 3, 675). Animals were divided into treatment groups of approximately eight. Lung inflammation and alveolar damage was induced in male Sprague Dawley rats by a single installation of pancreatic elastase(porcine derived, Calbiochem) 2 U/gram body mass. Three weeks post injury all-trans retinoic acid or RAR agonist was dissolved in dimethylsulfoxide (20 mg/ml) and stored at −20 C. Fresh working stocks were prepared fresh daily by dilution in PBS to a final concentration of 2 mg/ml. Animals were dosed once daily with the retinoid by intraperitoneal injection or orally, starting 21 days post injury. Control groups were challenged with elastase and 21 days later treated with Vehicle (DMSO/PBS) for 14 days. Animals were sacrificed 24 hours after the last dose of by exsanguination under deep anesthesia.
The lungs were inflated with 10% neutral buffered formalin by intratracheal instillation at a constant rate (1 ml/gram body mass/min). The lung was excised and immersed in fixative for 24 hours prior to processing. Standard methods were used to prepare 5 um paraffin sections. Sections were stained with Hematoxylin and Eosin (H%E). Computerized Morphometric analysis was performed to determine the average alveolar size and alveolar number (Table 1).

Molecule `CC1(C)CCC(C)(C)C2=C1CC(C)(C(=O)Oc1ccc(C(=O)O)cc1)C2` [B, 2,4,4,7,7-pentamethyl-2,3,4,5,6,7-hexahydro-1H-indene-2-carboxylic acid 4-carboxy-phenyl ester] returned a melting point of 205 to 206 °C.
The molecule `CCC1(C(=O)Oc2ccc(C(=O)O)cc2)CC2=C(C1)C(C)(C)CCC2(C)C` [C, 2-ethyl-4,4,7,7-tetramethyl-2,3,4,5,6,7-hexahydro-1H-indene-2-carboxylic acid 4-carboxy-phenyl ester] returned a melting point of 175 to 176 °C.
The molecule `CC1(C)CCC(C)(C)C2=C1CC(Cc1ccccc1)(C(=O)Oc1ccc(C(=O)O)cc1)C2` [E, 2-benzyl-4,4,7,7-tetramethyl-2,3,4,5,6,7-hexahydro-1H-indene-2-carboxylic acid 4-carboxy-phenyl ester] registered a melting point of 183 to 184 °C.
On the same count and under the same terms, the result for `CCCC1(C(=O)Oc2ccc(C(=O)O)cc2)CC2=C(C1)C(C)(C)CCC2(C)C` [Example 3.5, 4,4,7,7-Tetramethyl-2-propyl-2,3,4,5,6,7-hexahydro-1H-indene-2-carboxylic acid 4-carboxy-phenyl ester] reads 156 to 157 °C; that for `CCCCC1(C(=O)Oc2ccc(C(=O)O)cc2)CC2=C(C1)C(C)(C)CCC2(C)C` [Example 3.6, 2-Butyl-4,4,7,7-tetramethyl-2,3,4,5,6,7-hexahydro-1H-indene-2-carboxylic acid 4-carboxy-phenyl ester], 172 to 173 °C; that for `CC(C)CC1(C(=O)Oc2ccc(C(=O)O)cc2)CC2=C(C1)C(C)(C)CCC2(C)C` [Example 3.7, 2-Isobutyl-4,4,7,7-tetramethyl-2,3,4,5,6,7-hexahydro-1H-indene-2-carboxylic acid 4-carboxy-phenyl ester], 194 to 196 °C.
The molecule `CCCCCCC1(C(=O)Oc2ccc(C(=O)O)cc2)CC2=C(C1)C(C)(C)CCC2(C)C` [Example 3.8, 2-Hexyl-4,4,7,7-tetramethyl-2,3,4,5,6,7-hexahydro-1H-indene-2-carboxylic acid 4-carboxy-phenyl ester] showed a melting point of 149 to 150 °C.
On the same count and under the same terms, the result for `CC1(C)CCC(C)(C)C2=C1CC(CCc1ccccc1)(C(=O)Oc1ccc(C(=O)O)cc1)C2` [Example 3.9, 4,4,7,7-Tetramethyl-2-phenethyl-2,3,4,5,6,7-hexahydro-1H-indene-2-carboxylic acid 4-carboxy-phenyl ester] reads 182 to 183 °C.
In turn, `CCCCCC1(C(=O)Oc2ccc(C(=O)O)cc2)CC2=C(C1)C(C)(C)CCC2(C)C` [compound D, 4,4,7,7-tetramethyl-2-pentyl-2,3,4,5,6,7-hexahydro-1H-indene-2-carboxylic acid 4-carboxy-phenyl ester] registered a melting point of 156 to 158 °C. Further, the “% repair area” value in data set [1] (0.3 mg/kg p.o. once daily) came to 11.1%. Besides, in data set [1] (0.5 mg/kg i.p. once daily), the “% repair area” value stood at 54%. Moreover, in data set [1] (1 mg/kg p.o. once daily), the “% repair area” value turned out to be 44%. Also, the “% repair area” value in data set [1] (3 mg/kg p.o. once daily) is reported as 48.6%.
